Our source for the IC50 and melting point values is patent US7517902B2, “Substituted indazoles, compositions containing the same, and the preparation and use thereof” (Aventis Pharma S.A., priority 2004, dated 2009).

Where a name gives a salt, the structure may show the parent alone.

In general, melting point refers to the temperature, or range, at which the solid turns liquid.

In one series the target is T1, human Tie2 (Homo sapiens, UniProt Q02763).
T1 construct: amino acids of the intracellular domain 776-1124; made in house
Kind of series: Tie2 assay of PLC phosphorylation (FlashPlate). To be noted: read-out: IC 50 TIE2. In kind it is biochemical.

The target in the next series is T2, Aurora2 (Homo sapiens, UniProt O14965).
T2 construct: Aurora 2: whole recombinant protein comprising an N-terminal histidine tail; His tag (histidine tail) (N); made in house; host or cells: E. coli
T2 sequence (O14965 1-403): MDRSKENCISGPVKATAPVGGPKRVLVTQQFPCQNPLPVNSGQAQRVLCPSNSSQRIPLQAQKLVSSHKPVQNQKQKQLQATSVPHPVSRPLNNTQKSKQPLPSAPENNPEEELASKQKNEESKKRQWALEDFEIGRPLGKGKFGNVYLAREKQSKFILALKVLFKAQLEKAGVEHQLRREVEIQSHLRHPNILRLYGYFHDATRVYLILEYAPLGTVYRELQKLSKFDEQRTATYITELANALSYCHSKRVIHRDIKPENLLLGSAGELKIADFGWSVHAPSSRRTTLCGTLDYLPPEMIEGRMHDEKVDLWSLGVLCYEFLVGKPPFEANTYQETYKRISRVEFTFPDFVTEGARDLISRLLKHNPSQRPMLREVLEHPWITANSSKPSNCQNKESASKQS
In words: Aurora2 enzyme assay, NuMA substrate phosphorylation (Flashplate). In kind it is biochemical. To be noted: read-out: IC 50 Aurora2. The method in brief:
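Recombinant full-length N-His Aurora2 (E. coli), 10 nM, phosphorylates 500 nM His-NuMA fragment with 1 µM ATP plus [33P]ATP in Tris/HCl pH 7.5, NaCl, MgCl2, DTT, 37 °C, 30 min, on Ni-chelate Flashplates. Incorporated 33P counted by scintillation; percent inhibition versus enzyme control after background subtraction.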

T1 sequence (Q02763 776-1124): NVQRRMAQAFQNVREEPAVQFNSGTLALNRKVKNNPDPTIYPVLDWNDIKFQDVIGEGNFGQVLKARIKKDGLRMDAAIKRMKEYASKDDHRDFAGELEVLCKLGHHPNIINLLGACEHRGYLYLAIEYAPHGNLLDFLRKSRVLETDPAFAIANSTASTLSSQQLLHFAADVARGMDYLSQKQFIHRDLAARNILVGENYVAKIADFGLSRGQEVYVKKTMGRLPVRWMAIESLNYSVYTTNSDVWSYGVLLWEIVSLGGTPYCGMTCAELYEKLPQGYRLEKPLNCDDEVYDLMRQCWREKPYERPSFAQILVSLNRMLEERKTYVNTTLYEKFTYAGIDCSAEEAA

As for `Nc1n[nH]c2cc(-c3ccc(NS(=O)(=O)c4cccc(Cl)c4Cl)cc3)ccc12` [Example 2, 1-[4-(3-Amino-1H-indazol-6-yl)phenyl]-2,3-dichlorobenzenesulfonamide hydrochloride], the IC50 at human Tie2 amounted to 15 nM; at Aurora2, 200 nM.

In turn, `O=C(Nc1n[nH]c2cc(-c3ccc(NS(=O)(=O)c4cccc(Cl)c4Cl)cc3)ccc12)c1ccsc1` [Example 3, 3-Thiophenecarboxylic acid {6-[4-(2,3dichlorobenzenesulfonylamino)phenyl]-1H-indazol-3-yl}amide] came in with a melting point of 196 °C. The IC50 at human Tie2 was found to be 4 nM. The IC50 at Aurora2 was 133 nM.

For `O=C(Nc1n[nH]c2c(F)c(-c3ccc(NS(=O)(=O)c4cccc(Cl)c4Cl)cc3)ccc12)c1ccsc1` [Example 5, 3-Thiophenecarboxylic acid {6-[4-(2,3-dichlorobenzenesulfonylamino)-7-fluorophenyl]-1H-indazol-3-yl}amide], the results for the IC50 at human Tie2 and on Aurora2 were 2 nM and 37 nM, respectively.

On to `Nc1n[nH]c2c(F)c(-c3ccc(NS(=O)(=O)c4cccc(Cl)c4Cl)cc3)ccc12` [Example 8, 1-[4-(3-Amino-1H-indazol-6-yl)-7-fluorophenyl]-2,3-dichlorobenzenesulfonamide hydrochloride], for which the values for the IC50 on human Tie2 and at Aurora2 were 10 nM and 87 nM, respectively.
